# Molecular target: T1, Recombinant autotaxin (Homo sapiens, UniProt Q13822)
# T1 construct: made in house; host or cells: Hi5 insect cells (baculovirus)
# Test: Autotaxin assay (Amplex Red, LPC substrate)
# Type: biochemical
# Conditions: recombinant autotaxin, LPC substrate, Amplex Red detection; values given as upper bounds
# Description: Autotaxin activity is measured indirectly by means of Amplex Red Reagent. In this course, Amplex Red is measured as fluorogenic indicator for generated H2O2. Autotaxin converts substrate lysophosphatidylcholine (LPC) to phosphocholine and lysophosphatidylic acid (LPA). After the conversion phosphocholine is reacted with alkaline phosphatase to obtain inorganic phosphate and choline. During the next step choline is oxidized with choline oxidase to yield betaine, whereby H2O2 is generated. H2O2 reacts with Amplex Red Reagent in the presence of peroxidase (Horseradish peroxidase) in an 1:1 stochiometry and yields highly fluorescent resorufin. The generated fluorescence is measured in a reaction-dependent kinetic mode in order to enable subtraction of fluorescence signals of possible other fluorescent compounds that are not part of the reaction from total measured fluorescence.
# 1.5 μl of a standard solution or of the compounds of the invention are dissolved in 20 mM Hepes pH 7.2 with maximally 7.7% DMSO in individual concentrations. The resulting solution is pre-incubated together with 10 μl (16 ng) of highly purified recombinant autotaxin in a black 384-hole microtiter plate for 30 min at 22° C.
# Thereafter, the reaction is started through the addition of 5 μL-a-lysophosphatidyl-choline (LPC), whereby the final concentration of LPC is 75 μM. The mixture is incubated for 90 min. at 37° C. After the incubation Amplex Red Reagent, peroxidase (Horseradish peroxidase) and choline oxidase are added. The fluorescence is immediately measured at a wavelength of 612 nm with an excitation wavelength of 485 nm in a “Tecan Ultra multimode” fluorescence reader. The activity of autotaxin is indirectly calculated via the amount of detected generated H2O2.
# For IC50 analysis, ten serial 1:3 dilutions starting at 30 μM for each compound were run in duplicates.
# IC50 values were calculated on normalized data. For normalization, control wells were added to each assay plate and the signal of uninhibited control wells was set to 100%, whereas the signal inhibited by 500 μM C14 LPA, (Avanti Polar Lipids, Cat#857120P) was set to 0%. Curves were fitted and IC50 values calculated by the following model using proprietory analysis software: Y=Bottom+(100−Bottom)/(1+10^((Log IC50−X)*HillSlope)) Where X is the logarithm of concentration. Y is the response; Y starts at Bottom and goes to Top with a sigmoid shape. Material
# Microtiter plate: PS-Microplate, 384-hole, small volume, black Corning, Cat#3677
# Protein: Recombinant autotaxin (baculoviral Hi5 expression)
# Substrate: L-a-lysophosphatidyl choline (chicken egg); Avanti Polar Lipids #830071P
# Standard: C14 LPA, Avanti Polar Lipids, Cat#857120P
# Detection Reagent: Amplex Red Reagent; Invitrogen #A12222; dissolved in 1.923 ml of DMSO peroxidase Type VI-A (horseradish), Sigma #P6782; dissolved in 7.45 ml of test buffer, Choline Oxidase; Sigma #C5896; dissolved in 2.47 ml test buffer
# Detection Reagent Mix: 1:100 dilution of Amplex Red Regent in test buffer
# Test buffer: 200 mM Tris-HCl, Merck, Cat #1.08219, pH 7.9; 0.1% BSA, lipid free, Roche Cat#775835
row,Structure (SMILES),IC50
1,"O=C(OCc1ccc(OC(F)(F)F)c(Cl)c1)N1CCC(N2CCN(C(=O)c3ccc4[nH]nnc4c3)CC2)CC1 [Compound 143, 4-[4-(1H-Benzotriazole-5-carbonyl)-piperazin-1-yl]-piperidine-1-carboxylic acid 3-chloro-4-trifluoromethoxy-benzyl ester]",< 1 µM
2,"O=C(OCc1cc(Cl)cc(C(F)(F)F)c1F)N1CCN(C2CCN(C(=O)c3ccc4[nH]nnc4c3)CC2)CC1 [Compound 99, 4-[1-(1H-Benzotriazole-5-carbonyl)-piperidin-4-yl]-piperazine-1-carboxylic acid 5-chloro-2-fluoro-3-trifluoromethyl-benzyl ester]",< 1 µM
3,"O=C(OCc1cc(F)cc(Cl)c1)N1CCN(C2CCN(C(=O)c3ccc4[nH]nnc4c3)CC2)CC1 [Compound 152, 4-[1-(1H-Benzotriazole-5-carbonyl)-piperidin-4-yl]-piperazine-1-carboxylic acid 3-chloro-5-fluoro-benzyl ester]",< 1 µM
4,"O=C(Nc1ccc2[nH]nnc2c1)c1cccc(N2CCN(C(=O)OCc3ccc(Cl)cc3)CC2)c1 [Compound 10, 4-[3-(1H-Benzotriazol-5-ylcarbamoyl)-phenyl]-piperazine-1-carboxylic acid 4-chloro-benzyl ester]",< 30 µM
5,"O=C(OCc1cc(C(F)(F)F)cc(C(F)(F)F)c1)N1CCN(C2CCN(C(=O)c3ccc4[nH]c(=S)[nH]c4c3)CC2)CC1 [Compound 161, 4-[1-(2-Thioxo-2,3-dihydro-1H-benzoimidazole-5-carbonyl)-piperidin-4-yl]-piperazine-1-carboxylic acid 3,5-bis-trifluoromethyl-benzyl ester]",< 1 µM
6,"O=C(OCc1cc(F)c(F)c(C(F)(F)F)c1)N1CCN(C2CCN(C(=O)c3ccc4[nH]nnc4c3)CC2)CC1 [Compound 165, 4-[1-(1H-Benzotriazole-5-carbonyl)-piperidin-4-yl]-piperazine-1-carboxylic acid 3,4-difluoro-5-trifluoromethyl-benzyl ester]",< 1 µM
7,"O=C(OCc1cc(Cl)cc(Cl)c1)N1CCC(C2CCN(C(=O)c3ccc4[nH]nnc4c3)CC2)CC1 [Compound 12, 1′-(1H-Benzotriazole-5-carbonyl)-[4,4′]bipiperidinyl-1-carboxylic acid 3,5-dichloro-benzyl ester]",< 1 µM
8,"O=C(Nc1ccc(-c2csnn2)cc1)C1CC(=O)N(C2CCN(C(=O)OCc3cc(Cl)cc(Cl)c3)CC2)C1 (stereo not shown) [Compound 57, 4-[2-Oxo-4-(4-[1,2,3]thiadiazol-4-yl-phenylcarbamoyl)-pyrrolidin-1-yl]-piperidine-1-carboxylic acid 3,5-dichloro-benzyl ester]",< 10 µM
9,"Cc1c(Br)cc(CCC(=O)N2CCN(C3CCN(C(=O)c4ccc5[nH]nnc5c4)CC3)CC2)cc1Br [Compound 130, 1-{4-[1-(1H-Benzotriazole-5-carbonyl)-piperidin-4-yl]-piperazin-1-yl}-3-(3,5-dibromo-4-methyl-phenyl)-propan-1-one]",< 10 µM
10,"O=C(CCc1ccc(C(F)(F)F)cc1)N1CCN(C2CCN(C(=O)c3ccc4[nH]nnc4c3)CC2)CC1 [Compound 32, 1-{4-[1-(1H-Benzotriazole-5-carbonyl)-piperidin-4-yl]-piperazin-1-yl}-3-(4-trifluoromethyl-phenyl)-propan-1-one]",< 1 µM
11,"O=C(OCc1ccc(OC(F)F)cc1)N1CCN(C2CCN(C(=O)c3ccc4[nH]nnc4c3)CC2)CC1 [Compound 167, 4-[1-(1H-Benzotriazole-5-carbonyl)-piperidin-4-yl]-piperazine-1-carboxylic acid 4-difluoromethoxy-benzyl ester]",< 1 µM
12,"O=C(CCc1ccccc1O)N1CCC(N2CCN(C(=O)c3ccccc3-c3cccc(C(F)(F)F)c3)CC2)CC1 [Compound 21, 3-(2-Hydroxy-phenyl)-1-{4-[4-(3′-trifluoromethyl-biphenyl-2-carbonyl)-piperazin-1-yl]-piperidin-1-yl}-propan-1-one]",< 1 µM
13,"O=C(OCc1ccc(Cl)cc1F)N1CCC(N2CCN(C(=O)c3ccc4[nH]nnc4c3)CC2)CC1 [Compound 62, 4-[4-(1H-Benzotriazole-5-carbonyl)-piperazin-1-yl]-piperidine-1-carboxylic acid 4-chloro-2-fluoro-benzyl ester]",< 1 µM
14,"O=C(OCc1ccc(Cl)cc1F)N1CCN(C2CCN(C(=O)c3ccc4[nH]nnc4c3)CC2)CC1 [Compound 36, 4-[1-(1H-Benzotriazole-5-carbonyl)-piperidin-4-yl]-piperazine-1-carboxylic acid 4-chloro-2-fluoro-benzyl ester]",< 1 µM
15,"O=C(CCc1cc(F)c(F)c(Cl)c1)N1CCN(C2CCN(C(=O)c3ccc4[nH]nnc4c3)CC2)CC1 [Compound 129, 1-{4-[1-(1H-Benzotriazole-5-carbonyl)-piperidin-4-yl]-piperazin-1-yl}-3-(3-chloro-4,5-difluoro-phenyl)-propan-1-one]",< 10 µM
16,"O=C(c1ccc2[nH]nnc2c1)N1CCC(N2CCN(C(=O)c3ccccc3-c3ccc(C(F)(F)F)cc3)CC2)CC1 [Compound 124, (1H-Benzotriazol-5-yl)-{4-[4-(4′-trifluoromethyl-biphenyl-2-carbonyl)-piperazin-1-yl]-piperidin-1-yl}-methanone]",< 10 µM
17,"O=C(OCc1cccc(OC(F)(F)F)c1)N1CCN(C2CCN(C(=O)c3ccc4[nH]nnc4c3)CC2)CC1 [Compound 128, 4-[1-(1H-Benzotriazole-5-carbonyl)-piperidin-4-yl]-piperazine-1-carboxylic acid 3-trifluoromethoxy-benzyl ester]",< 1 µM
18,"CN(C1CCN(C(=O)OCc2ccc(C(F)(F)F)cc2)CC1)C1CCN(C(=O)c2ccc3[nH]nnc3c2)C1 (stereo not shown) [Compound 182, 4-{[1-(1H-Benzotriazole-5-carbonyl)-pyrrolidin-3-yl]-methyl-amino}-piperidine-1-carboxylic acid 4-trifluoromethyl-benzyl ester]",< 10 µM
19,"O=C(OCc1cc(C(F)(F)F)ccc1F)N1CCC(N2CCN(C(=O)c3ccc4[nH]nnc4c3)CC2)CC1 [Compound 74, 4-[4-(1H-Benzotriazole-5-carbonyl)-piperazin-1-yl]-piperidine-1-carboxylic acid 2-fluoro-5-trifluoromethyl-benzyl ester]",< 10 µM
20,"O=C(OCc1cc(Cl)cc(Cl)c1)N1CCC(NC2CCN(C(=O)c3ccc4[nH]nnc4c3)CC2)C1 (stereo not shown) [Compound 51, 3-[1-(1H-Benzotriazole-5-carbonyl)-piperidin-4-ylamino]-pyrrolidine-1-carboxylic acid 3,5-dichloro-benzyl ester]",< 1 µM
21,"O=C(CCc1ccc(Cl)cc1F)N1CCC(N2CCN(C(=O)c3ccc4[nH]nnc4c3)CC2)CC1 [Compound 61, 1-{4-[4-(1H-Benzotriazole-5-carbonyl)-piperazin-1-yl]-piperidin-1-yl}-3-(4-chloro-2-fluoro-phenyl)-propan-1-one]",< 10 µM
22,"O=C(Cc1ccc(C(F)(F)F)cc1F)N1CCN(C2CCN(C(=O)c3ccc4[nH]nnc4c3)CC2)CC1 [Compound 103, 1-{4-[1-(1H-Benzotriazole-5-carbonyl)-piperidin-4-yl]-piperazin-1-yl}-2-(2-fluoro-4-trifluoromethyl-phenyl)-ethanone]",< 30 µM
23,"O=C(c1ccc2[nH]nnc2c1)N1CCC(N2CCN(C(=O)c3cc4cc(Br)ccc4o3)CC2)CC1 [Compound 159, (1H-Benzotriazol-5-yl)-{4-[4-(5-bromo-benzofuran-2-carbonyl)-piperazin-1-yl]-piperidin-1-yl}-methanone]",< 10 µM
24,"O=C(NCCc1cccnc1)C1CC(=O)N(C2CCN(C(=O)OCc3cc(Cl)cc(Cl)c3)CC2)C1 (stereo not shown) [Compound 30, 4-[2-Oxo-4-(2-pyridin-3-yl-ethylcarbamoyl)-pyrrolidin-1-yl]-piperidine-1-carboxylic acid 3,5-dichloro-benzyl ester]",< 30 µM
25,"Cc1oc(-c2ccccc2)cc1COC(=O)N1CCN(C2CCN(C(=O)c3ccc4[nH]nnc4c3)CC2)CC1 [Compound 173, 4-[1-(1H-Benzotriazole-5-carbonyl)-piperidin-4-yl]-piperazine-1-carboxylic acid 2-methyl-5-phenyl-furan-3-ylmethyl ester]",< 10 µM

# — patent US9452997B2, “Piperidine and piperazine derivatives as autotaxin inhibitors” (Merck Patent GmbH, priority 2009, dated 2016)
